Source: PubChem BioAssay AID248 (DTP/NCI, 2004)
Inconclusive results and toxic doses are left out.

Test system: L1210 leukemia ip in BDF1 mice, survival T/C
Assay: NCI In Vivo Anticancer Drug Screen. Data for tumor model L1210 Leukemia (intraperitoneal) in B6D2F1 (BDF1) mice
Details: endpoint: mean survival time, higher = longer survival
Method in brief: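 In this screen, tumor-bearing mice given compound are compared to those given vehicle, and their survival values are reported as a treated-to-control quotient.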

[1] = dose: 100.0 mg/kg/injection, schedule: Q01DX001 (ip), vehicle: Klucel (hydroxypropylcellulose) (HPC)
[2] = dose: 100.0 mg/kg/injection, schedule: Q01DX009 (ip), vehicle: Klucel (hydroxypropylcellulose) (HPC)
[3] = dose: 100.0 mg/kg/injection, schedule: Q04DX003 (ip), vehicle: Klucel (hydroxypropylcellulose) (HPC)
[4] = dose: 200.0 mg/kg/injection, schedule: Q01DX001 (ip), vehicle: Klucel (hydroxypropylcellulose) (HPC)
[5] = dose: 200.0 mg/kg/injection, schedule: Q01DX009 (ip), vehicle: Klucel (hydroxypropylcellulose) (HPC)
[6] = dose: 200.0 mg/kg/injection, schedule: Q04DX003 (ip), vehicle: Klucel (hydroxypropylcellulose) (HPC)
[7] = dose: 400.0 mg/kg/injection, schedule: Q01DX009 (ip), vehicle: Klucel (hydroxypropylcellulose) (HPC)
[8] = dose: 400.0 mg/kg/injection, schedule: Q04DX003 (ip), vehicle: Klucel (hydroxypropylcellulose) (HPC)
[9] = dose: 75.0 mg/kg/injection, schedule: Q01DX001 (ip), vehicle: saline
[10] = dose: 150.0 mg/kg/injection, schedule: Q01DX001 (ip), vehicle: saline

For `CN=NC(OC(C)=O)(c1ccccc1)c1ccccc1`, the T/C [1] was 101 % of control, the T/C [2] was 100 % of control and the T/C [3] was 108 % of control. The T/C [4] was 95 % of control, the T/C [5] was 97 % of control and the T/C [6] was 103 % of control. For the same compound, the T/C (dose: 400.0 mg/kg/injection, schedule: Q01DX001 (ip), vehicle: Klucel (hydroxypropylcellulose) (HPC)) was 94 % of control, the T/C [7] was 105 % of control and the T/C [8] was 101 % of control.

For `Cc1ccc(S(=O)(=O)NC(=O)N(CCCl)N=O)cc1`, the T/C (dose: 10.0 mg/kg/injection, schedule: Q01DX001 (ip), vehicle: other) was 113 % of control, the T/C (dose: 40.0 mg/kg/injection, schedule: Q01DX001 (ip), vehicle: other) was 216 % of control and the T/C (dose: 62.0 mg/kg/injection, schedule: Q01DX001 (ip), vehicle: other) was 220 % of control. The T/C (dose: 93.0 mg/kg/injection, schedule: Q01DX001 (ip), vehicle: other) was 307 % of control and the T/C (dose: 187.0 mg/kg/injection, schedule: Q01DX001 (ip), vehicle: other) was 168 % of control.

`CC(C)(C)C(=O)CC(=O)C(C)(C)C.CC(C)(C)C(=O)CC(=O)C(C)(C)C.CC(C)(C)C(=O)CC(=O)C(C)(C)C.CC(C)(C)C(=O)CC(=O)C(C)(C)C.[Ce]` was tested, and the T/C [2] was 100 % of control, the T/C [3] was 103 % of control and the T/C [5] was 96 % of control. For the same compound, the T/C [6] was 94 % of control, the T/C [7] was 107 % of control and the T/C [8] was 106 % of control.

In the case of `O=c1[nH]c2ccsc2c(=O)n1OS(=O)(=O)c1ccccc1`, the T/C [2] is reported as 100 % of control, the T/C [5] is reported as 100 % of control and the T/C [7] is reported as 88 % of control.

With `CCOC(=O)Nc1ccc2c(c1)/C(=N\NC(=S)NC)c1ccccc1-2` the T/C (dose: 75.0 mg/kg/injection, schedule: Q01DX001 (ip), vehicle: carboxymethylcellulose (CMC)) was 90 % of control, the T/C (dose: 150.0 mg/kg/injection, schedule: Q01DX001 (ip), vehicle: carboxymethylcellulose (CMC)) was 92 % of control and the T/C (dose: 300.0 mg/kg/injection, schedule: Q01DX001 (ip), vehicle: carboxymethylcellulose (CMC)) was 88 % of control.

For `COc1c2c(c3c(c1O)c(=O)c1ccccc1n3C)OCO2`, the T/C (dose: 50.0 mg/kg/injection, schedule: Q01DX001 (ip), vehicle: carboxymethylcellulose (CMC)) was 104 % of control, the T/C (dose: 100.0 mg/kg/injection, schedule: Q01DX001 (ip), vehicle: carboxymethylcellulose (CMC)) was 90 % of control and the T/C (dose: 200.0 mg/kg/injection, schedule: Q01DX001 (ip), vehicle: carboxymethylcellulose (CMC)) was 90 % of control.

In the case of `COC(=O)Cc1ccc2c(c1)OCO2`, the T/C (dose: 100.0 mg/kg/injection, schedule: Q01DX001 (ip), vehicle: saline) is reported as 97 % of control, the T/C (dose: 200.0 mg/kg/injection, schedule: Q01DX001 (ip), vehicle: saline) is reported as 101 % of control and the T/C (dose: 400.0 mg/kg/injection, schedule: Q01DX001 (ip), vehicle: saline) is reported as 103 % of control.

With `CN(C)N=Nc1c[nH]c(=O)[nH]c1=O` the T/C (dose: 10.0 mg/kg/injection, schedule: Q01DX001 (ip), vehicle: saline) was 108 % of control, the T/C (dose: 20.0 mg/kg/injection, schedule: Q01DX001 (ip), vehicle: saline) was 120 % of control and the T/C (dose: 40.0 mg/kg/injection, schedule: Q01DX001 (ip), vehicle: saline) was 123 % of control.

`O=C(O)c1ccc(CNCc2ccccc2)cc1` was tested, and the T/C [9] was 102 % of control and the T/C [10] was 96 % of control.

For `c1cnc2c(c1)Oc1cccnc1N2`, the T/C (dose: 50.0 mg/kg/injection, schedule: Q01DX001 (ip), vehicle: Klucel (hydroxypropylcellulose) (HPC)) was 98 % of control, the T/C [1] was 92 % of control and the T/C [4] was 90 % of control.

`Clc1ccc(/C=N/N=C/c2ccc(Cl)cc2Cl)c(Cl)c1` was tested, and the T/C (dose: 100.0 mg/kg/injection, schedule: Q04DX002 (ip), vehicle: Klucel (hydroxypropylcellulose) (HPC)) was 98 % of control, the T/C (dose: 200.0 mg/kg/injection, schedule: Q04DX002 (ip), vehicle: Klucel (hydroxypropylcellulose) (HPC)) was 98 % of control and the T/C (dose: 400.0 mg/kg/injection, schedule: Q04DX002 (ip), vehicle: Klucel (hydroxypropylcellulose) (HPC)) was 102 % of control.

For `CN(CCC(C#N)c1ccccc1)C(=O)c1ccccc1` (configuration not stated), the T/C [9] was 98 % of control and the T/C [10] was 96 % of control.

With `COc1ccc2c(c1)CCC1C2=CC(=O)/C1=C\[O-].COc1ccc2c(c1)CCC1C2=CC(=O)/C1=C\[O-].[Cu+2]` (configuration not stated) the T/C (dose: 50.0 mg/kg/injection, schedule: Q01DX009 (ip), vehicle: saline with Tween-80) was 97 % of control, the T/C (dose: 100.0 mg/kg/injection, schedule: Q01DX009 (ip), vehicle: saline with Tween-80) was 104 % of control and the T/C (dose: 100.0 mg/kg/injection, schedule: Q04DX003 (ip), vehicle: saline) was 92 % of control. For the same compound, the T/C (dose: 200.0 mg/kg/injection, schedule: Q04DX003 (ip), vehicle: saline) was 94 % of control.

For `CCOC(=O)C(C(=O)OCC)C(C)(C)c1ccccc1`, the T/C (dose: 100.0 mg/kg/injection, schedule: Q01DX009 (ip), vehicle: saline) was 104 % of control, the T/C (dose: 200.0 mg/kg/injection, schedule: Q01DX009 (ip), vehicle: saline) was 103 % of control and the T/C (dose: 400.0 mg/kg/injection, schedule: Q01DX009 (ip), vehicle: saline) was 101 % of control.
